The values that follow come from patent US12590062B2, “PD-1/PD-L1 inhibitors” (Gilead Sciences, Inc., priority 2017, dated 2026).

The target in one test is T1, PD-L1 (Homo sapiens, UniProt Q9NZQ7).
T1 construct: determine if they can specifically dimerize the extracellular domains of PD-L1
The test can be described thus: PD-L1/PD-L1 dimerization biochemical protein-protein interaction assay (ALPHA). In kind it is binding. The settings on record: compound-induced PD-L1 dimerization, head prints '1 nM' (0.5 nM His-tagged PD-L1 and 0.5 nM FLAG-tagged PD-L1), read-out: AC50 PDL1 Dimer Alpha 1 nM. On the procedure:
PD-L1/PD-L1 Dimerization Biochemical Protein-Protein Interaction Assay:
Compounds were tested in biochemical protein-protein interaction assays to determine if they can specifically dimerize the extracellular domains of PD-L1. Dimerization of the proteins (His-tagged PD-L1 and FLAG-tagged PD-L1) is measured using a bead based Amplified Luminescent Proximity Homogeneous Assay (ALPHA) platform. […] Assays are performed in 25 mM Hepes (pH 7.4), 150 mM NaCl, 3.4 mM EDTA, 0.005% Tween 20, and 0.01% BSA. Final protein concentration in the assays were 0.5 nM (His tagged PD-L) and 0.5 nM (FLAG tagged PD-L1). After an assay reaction time of 2 hours at 25° C., 20 μg/mL (final assay concentration) ALPHA assay acceptor beads (anti-His coated) were added and incubated for 60 minutes at 25° C. Binding was measured following a final 60 minute incubation with 40 μg/mL (final assay concentration) ALPHA assay donor beads (anti-FLAG coated). AC50 values were calculated from the fit of the dose-response curves to a four-parameter equation (Table 3).

The target of another test is T2, PD-1/PD-L1 interaction (Homo sapiens, UniProt Q9NZQ7).
T2 construct: expressed in transfected cells; host or cells: CHO cells (aAPC-PD-L1) co-cultured with Jurkat cells overexpressing PD-1 and an NFAT-luciferase reporter
T2 sequence (Q9NZQ7 19-290): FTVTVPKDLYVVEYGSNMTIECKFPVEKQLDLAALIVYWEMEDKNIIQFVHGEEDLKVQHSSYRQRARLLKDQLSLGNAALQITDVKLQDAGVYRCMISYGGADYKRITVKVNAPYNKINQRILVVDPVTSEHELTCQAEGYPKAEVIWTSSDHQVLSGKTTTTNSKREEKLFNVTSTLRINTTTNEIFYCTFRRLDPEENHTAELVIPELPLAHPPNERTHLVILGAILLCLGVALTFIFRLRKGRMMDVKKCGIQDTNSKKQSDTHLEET
Put plainly: PD-1/PD-L1 NFAT reporter co-culture assay. In kind it is cell-based. The settings on record: Jurkat PD-1 NFAT-luciferase cells co-cultured with aAPC-PD-L1 CHO cells, 6 hrs at 37° C.; read-out: EC50 NFAT Luciferase. Put shortly:
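Restoration of TCR-driven NFAT luciferase signal: 6 h, 37 °C co-culture of PD-1 Jurkat reporter cells (pre-mixed with compound) on overnight-seeded PD-L1/anti-CD3 CHO monolayer. ONE-Glo luminescence; dose-response fitted to four-parameter equation for EC50.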

A further test addresses PD-1/PD-L1 (Homo sapiens, UniProt Q9NZQ7). Put plainly: PD-1/PD-L1 biochemical protein-protein interaction assay (ALPHA). Format: binding. The settings on record: 0.3 nM His tagged PD-L1, 2.5 nM biotinylated Fc-PD-1, 60 minutes at 25° C., read-out: IC50 PD-L1-PD-1 Alpha IC50-mono PD-L1-fcP-D1. Put shortly:
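Compounds are tested for blocking the PD-1/PD-L1 extracellular-domain interaction using an ALPHA bead assay, in which inhibition lowers the luminescent signal. Reactions run 60 min at 25° C with 0.3 nM His-PD-L1 and 2.5 nM biotinylated Fc-PD-1. IC50 values come from four-parameter fits.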

Molecules are shown by their SMILES. pEC50, pIC50: −log10 of the molar value.

T1 sequence (Q9NZQ7 19-238 limits assumed): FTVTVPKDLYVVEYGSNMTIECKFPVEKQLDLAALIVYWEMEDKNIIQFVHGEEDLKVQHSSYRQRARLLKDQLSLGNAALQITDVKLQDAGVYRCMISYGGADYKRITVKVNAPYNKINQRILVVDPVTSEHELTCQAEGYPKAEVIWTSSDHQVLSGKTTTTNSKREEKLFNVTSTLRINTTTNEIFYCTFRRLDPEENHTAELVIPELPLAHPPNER
T1 sequence (Q9NZQ7 19-238 limits assumed): as above
Sequence of PD-1/PD-L1 (Q9NZQ7 19-238 limits assumed): as above

Regarding `Cc1c(COc2cc(OCc3cncc(C#N)c3)c(CNC[C@@H](O)CC(=O)O)cc2Cl)cccc1-c1cccc(-c2ccc3sc(CNC[C@@H](O)CC(=O)O)nc3c2)c1C` [Example 399, (S)-4-(((5-(3′-((4-((((S)-3-carboxy-2-hydroxypropyl)amino)methyl)-2-chloro-5-((5-cyanopyridin-3-yl)methoxy)phenoxy)methyl)-2,2′-dimethyl-[1,1′-biphenyl]-3-yl)benzo[d]thiazol-2-yl)methyl)amino)-3-hydroxybutanoic acid], the AC50 (as a rule, the midpoint of the concentration-response curve, whichever way the signal moves) at PD-L1 is 289 nM. For the same molecule, the pEC50 (usually the EC50 on a negative log10 scale, so that one unit is a factor of ten) at PD-1/PD-L1 interaction was 6.50.

On to `Cc1c(COc2cc(OCc3cc(C#N)ccn3)c(CNC[C@@H](O)CC(=O)O)cc2Cl)cccc1-c1cccc(COc2cc(OCc3cc(C#N)ccn3)c(CNC[C@@H](O)CC(=O)O)cc2Cl)c1C` [Example 225, (3S,3′S)-4,4′-((((((2,2′-dimethyl-[1,1′-biphenyl]-3,3′-diyl)bis(methylene))bis(oxy))bis(5-chloro-2-((4-cyanopyridin-2-yl)methoxy)-4,1-phenylene))bis(methylene))bis(azanediyl))bis(3-hydroxybutanoic acid)], for which the AC50 at PD-L1 was found to be 423 nM. In addition, on PD-1/PD-L1 interaction, the pEC50 is 6.84.

For the molecule `N#Cc1cncc(COc2nc(OCc3cccc(-c4cccc(COc5nc(OCc6cncc(C#N)c6)c(CNC[C@H](O)CC(=O)O)cc5Br)c4Cl)c3Cl)c(Br)cc2CNC[C@H](O)CC(=O)O)c1` [Example 196, (3R,3′R)-4,4′-((((((2,2′-Dichloro-[1,1′-biphenyl]-3,3′-diyl)bis(methylene))bis(oxy))bis(5-bromo-2-((5-cyanopyridin-3-yl)methoxy)pyridine-6,3-diyl))bis(methylene))bis(azanediyl))bis(3-hydroxybutanoic acid)], the AC50 at PD-L1 came out at 223 nM. For the same molecule, at PD-1/PD-L1 interaction, the pEC50 was 6.82.

Take `Cc1c(COc2cc(OCc3cncc(C#N)c3)c(CNC[C@@H](O)CC(=O)O)cc2Cl)cccc1-c1cccc(-c2ccc3cc(CNC[C@@H](O)CC(=O)O)ccc3n2)c1C` [Example 398, (S)-4-(((2-(3′-((4-((((S)-3-carboxy-2-hydroxypropyl)amino)methyl)-2-chloro-5-((5-cyanopyridin-3-yl)methoxy)phenoxy)methyl)-2,2′-dimethyl-[1,1′-biphenyl]-3-yl)quinolin-6-yl)methyl)amino)-3-hydroxybutanoic acid]: the AC50 at PD-L1 came to 728 nM. Further, the pEC50 at PD-1/PD-L1 interaction is 5.96.

With `Cc1c(COc2cc(OCc3cncc(C#N)c3)c(CN3C[C@@H](O)C[C@H]3C(=O)O)cc2Cl)cccc1-c1cccc(COc2cc(OCc3cncc(C#N)c3)c(CN3C[C@@H](O)C[C@H]3C(=O)O)cc2Cl)c1C` [Example 58, (2S,2′S,4S,4'S)-1,1′-(((((2,2′-dimethyl-[1,1′-biphenyl]-3,3′-diyl)bis(methylene))bis(oxy))bis(5-chloro-2-((5-cyanopyridin-3-yl)methoxy)-4,1-phenylene))bis(methylene))bis(4-hydroxypyrrolidine-2-carboxylic acid)], on PD-1/PD-L1, the pIC50 – broadly, the negative decadic logarithm of the IC50, by convention in mol/L – is 9.52. Further, on PD-1/PD-L1 interaction, the pEC50 is 6.09.

On to `COc1nc(OCc2cccc(-c3cccc(COc4cc(OCc5cncc(C#N)c5)c(CNC[C@@H](O)CC(=O)O)cc4Cl)c3C)c2C)ccc1CNCCO` [Example 202, (S)-4-((5-Chloro-2-((5-cyanopyridin-3-yl)methoxy)-4-((3′-(((5-(((2-hydroxyethyl)amino)methyl)-6-methoxypyridin-2-yl)oxy)methyl)-2,2′-dimethyl-[1,1′-biphenyl]-3-yl)methoxy)benzyl)amino)-3-hydroxybutanoic acid], for which the pIC50 at PD-1/PD-L1 was 8.49. Also, the negative-log EC50 (pEC50) at PD-1/PD-L1 interaction is 5.72.

Turning to `CC(=O)NCCNCc1ccc(OCc2cccc(-c3cccc(COc4ccc(CNCCNC(C)=O)c(-c5cncc(C#N)c5)c4)c3C)c2C)cc1-c1cncc(C#N)c1` [Example 250, N,N′-(((((((2,2′-dimethyl-[1,1′-biphenyl]-3,3′-diyl)bis(methylene))bis(oxy))bis(2-(5-cyanopyridin-3-yl)-4,1-phenylene))bis(methylene))bis(azanediyl))bis(ethane-2,1-diyl))diacetamide], the negative-log IC50 (pIC50) on PD-1/PD-L1 is 7.20. Moreover, at PD-1/PD-L1 interaction, the pEC50 is 5.13.

With `COc1nc(OCc2cccc(-c3cccc(COc4nc(OC)c(CN5CC[C@H]5C(=O)O)cc4Br)c3C)c2C)ccc1CN1CC[C@H]1C(=O)O` [Example 60, (S)-1-((6-((3′-(((3-bromo-5-(((S)-2-carboxyazetidin-1-yl)methyl)-6-methoxypyridin-2-yl)oxy)methyl)-2,2′-dimethyl-[1,1′-biphenyl]-3-yl)methoxy)-2-methoxypyridin-3-yl)methyl)azetidine-2-carboxylic acid], the pIC50 at PD-1/PD-L1 is 8.64. Further, the pEC50 on PD-1/PD-L1 interaction was at most 4.30.

On to `Cc1c(COc2cc(OCc3cncc(C#N)c3)c(CN[C@@](C)(CO)C(=O)O)cc2Cl)cccc1-c1cccc(-c2ccc3c(c2)OCC3N(C)C)c1C` (stereo partly drawn) [Example 376, (2S)-2-((5-chloro-2-((5-cyanopyridin-3-yl)methoxy)-4-((3′-(3-(dimethylamino)-2,3-dihydrobenzofuran-6-yl)-2,2′-dimethyl-[1,1′-biphenyl]-3-yl)methoxy)benzyl)amino)-3-hydroxy-2-methylpropanoic acid], for which the pIC50 on PD-1/PD-L1 was 9.46. At PD-1/PD-L1 interaction, the pEC50 was 6.11.

In the case of `COc1nc(O[C@H]2CCc3c(-c4cccc5c4CC[C@@H]5Oc4nc(OC)c(CNC[C@H](O)CC(=O)O)cc4Br)cccc32)c(Br)cc1CNC[C@H](O)CC(=O)O` [Example 3, (3R,3′R)-4,4′-((((((1S,1′S)-2,2′,3,3′-tetrahydro-1H,1′H-[4,4′-biindene]-1,1′-diyl)bis(oxy))bis(5-bromo-2-methoxypyridine-6,3-diyl))bis(methylene))bis(azanediyl))bis(3-hydroxybutanoic acid)], at PD-1/PD-L1, the pIC50 is 9.70. At PD-1/PD-L1 interaction, the pEC50 is 7.32.

For `N#Cc1cncc(COc2cc(C(=O)N3CCc4c(-c5cccc6c5CCN6C(=O)c5ccc(CNC[C@@H](O)CC(=O)O)c(OCc6cncc(C#N)c6)c5)cccc43)ccc2CNC[C@@H](O)CC(=O)O)c1` [Example 267, (3S,3′S)-4,4′-(((([4,4′-biindoline]-1,1′-dicarbonyl)bis(2-((5-cyanopyridin-3-yl)methoxy)-4,1-phenylene))bis(methylene))bis(azanediyl))bis(3-hydroxybutanoic acid)], on PD-1/PD-L1, the pIC50 was 8.96. In addition, the pEC50 on PD-1/PD-L1 interaction was 5.07.

`COc1nc(OCc2cccc(-c3cccc(COc4ccc(CN5C[C@@H](O)CC5=O)c(OC)n4)c3C)c2C)ccc1CNC[C@@H](O)CC(=O)O` [Example 26, (S)-3-hydroxy-4-(((6-((3′-(((5-(((S)-4-hydroxy-2-oxopyrrolidin-1-yl)methyl)-6-methoxypyridin-2-yl)oxy)methyl)-2,2′-dimethyl-[1,1′-biphenyl]-3-y)methoxy)-2-methoxypyridin-3-yl)methyl)amino)butanoic acid]: on PD-1/PD-L1, the pIC50 is 7.79. Moreover, the pEC50 at PD-1/PD-L1 interaction is 4.72.

Consider `Cc1c(COc2nc(OCc3cncc(C#N)c3)c(CNC[C@@H](O)CC(=O)O)cc2Br)cccc1-c1cccc(-c2ccc(OCCNC[C@@H](O)CC(=O)O)cc2)c1C` [Example 385, (S)-4-((2-((3″-(((3-bromo-5-((((S)-3-carboxy-2-hydroxypropyl)amino)methyl)-6-((5-cyanopyridin-3-yl)methoxy)pyridin-2-yl)oxy)methyl)-2′,2″-dimethyl-[1,1′:3′,1″-terphenyl]-4-yl)oxy)ethyl)amino)-3-hydroxybutanoic acid], for which the pIC50 at PD-1/PD-L1 was 10.29. The pEC50 at PD-1/PD-L1 interaction was 7.08.

Regarding `COc1nc(OCc2cccc(-c3cccc(COc4ccc(CN[C@H](CO)C(=O)O)c(OC)n4)c3C)c2C)ccc1CN[C@H](CO)C(=O)O` [Example 14], on PD-1/PD-L1, the pIC50 was 8.68. The pEC50 at PD-1/PD-L1 interaction was 4.88.

For the molecule `Cc1c(COc2nc(OCc3cncc(C#N)c3)c(CNC[C@H](O)CC(=O)O)cc2Br)cccc1-c1cccc(COc2nc(OCc3cncc(C#N)c3)c(CNC[C@H](O)CC(=O)O)cc2Br)c1C` [Example 252, (3R,3′R)-4,4′-((((((2,2′-dimethyl-[1,1′-biphenyl]-3,3′-diyl)bis(methylene))bis(oxy))bis(5-bromo-2-((5-cyanopyridin-3-yl)methoxy)pyridine-6,3-diyl))bis(methylene))bis(azanediyl))bis(3-hydroxybutanoic acid)], the pIC50 on PD-1/PD-L1 is 9.52. For the same molecule, the pEC50 on PD-1/PD-L1 interaction is 6.48.

For the molecule `Cc1c(-c2ccc(OCCNC[C@@H](O)CC(=O)O)cc2)cccc1-c1cccc2c1CC[C@@H]2Oc1nc(OCc2cncc(C#N)c2)c(CNC[C@@H](O)CC(=O)O)cc1Cl` [Example 675], at PD-1/PD-L1, the pIC50 was 10.19. For the same molecule, the pEC50 at PD-1/PD-L1 interaction is 7.02.
